From US20110318375A1, “Immunomodulatory Therapeutic Agents” (priority 2009, published 2011)

Key:
[1] = test system: Cytokine 12 Panel; assay: Cytokine 12 panels after IV dose of 50 mg synthetic Fibrinopeptide A; format: in vivo, human; parameters: IL-10 / TNF-α / IL-2 / IL-12: unit not given here; conditions: for IFN-γ / IL-4 / IL-5 / IL-6 / IL-8 / IL-13: nl: 0-5; for IL-12: nl: 0-6; for IL-2: nl: 0-12; for IL-10: nl: 0-18; for TNF-α: nl: 0-22; for IL-1β: nl: 0-36; for IL-2R: nl: 0-1033
Text: Peptide was suspended in an appropriate medium and a healthy volunteer took the preparation daily for two weeks, drawing blood for a cytokine 12 panel every five days. Due to the size of the molecules absorption from the mucosal route seemed unlikely, and the rapid digestion of peptides in the stomach would eliminate their efficacy in a true oral route. This same healthy volunteer had lab work drawn right before receiving an IV dose of synthetic Fibrinopeptide A. The IV dose was expected to have a more profound therapeutic effect, since treatment was simulating a normal intravascular biologic process. […] (Table 3). [table] In addition to these elevations, a mild elevation of Interleukin-6 was also observed. Interleukin-6 is a pro-inflammatory cytokine and is a very strong stimulator of the innate immune system. […] The most significant of these tests is the blood drawn one month after the IV dose was given. In this test the marked elevation of at least IL-10 and IL-1β, which had been present in each of the other dosages given by any route, was observed. […] This location for primary activity also explains the stimulation of the adaptive immune system over the innate immune response, as the lymphatic system is more involved in the adaptive response, while the vascular system is more involved in the innate response. The response to orally administered Fibrinopeptide A also solidifies this location of activity as transmucosal absorption occurs almost exclusively through the lymphatic route, occurs rapidly for those molecules which are absorbed, and the oral submucosal region (especially the sublingual region) has an extensive lymphatic drainage with rapid access to the cells which would produce this type of response while at least partially being shielded from the enzymes that inactivate the peptides of this invention. Since chronic fibrin deposition in the extravascular space is always pathologic and pro-inflammatory, it is not surprising that patients have a mechanism triggered by this deposition to aid in the removal of these substances. […] By signaling the need for removal from the extravascular space, the same process should occur for similar chronic deposits in the subintimal space.

[2] = test system: Experimental Allergic Encephalomyelitis (EAE); assay: Acute Experimental Allergic Encephalomyelitis mouse model; format: in vivo, mice; conditions: daily, subcutaneous; recovery after day 22, worsened on days 27 and 28; p<0.1
Text: The carboxy terminus of activated Fibrinopeptide A was considered to be the active portion of the peptide, the carboxy terminus was PEGylate (addition of Poly Ethylene Glycol). This molecule was used to perform an EAE study. This study was designed to mimic the study done by Ruhenstroth-Bauer in 1981 utilizing two of these peptides, and showing some albeit mild benefit. The synthetic PEGylated peptide was expected to perform considerably better than the non-PEGylated peptide. Synthetic non-PEGylated peptide A was used as a positive control to compare the PEGylated verses non-PEGylated peptides. The medications were administered subcutaneously, due to this route having some efficacy in the cytokine profiles.
Test article 2 (PEGylated peptide) dosed daily, every 3 days and weekly never even approached statistically significant benefit.
During the first 22 days of the study EAE development in mice treated with test article 1 (daily non-PEGylated peptide A) was very similar to the vehicle-treated mice. […] Disease worsened in test article 1-treated mice on days 27 and 28 and became very similar to disease severity to the mice in the vehicle-treated group.

[3] = test system: Cytokine 12 Panel; assay: Cytokine 12 panel after oral peptide preparation taken daily for two weeks; format: in vivo, human; conditions: Pre: prior to the IV dose, 4 weeks after oral dosing
Text: Peptide was suspended in an appropriate medium and a healthy volunteer took the preparation daily for two weeks, drawing blood for a cytokine 12 panel every five days. Due to the size of the molecules absorption from the mucosal route seemed unlikely, and the rapid digestion of peptides in the stomach would eliminate their efficacy in a true oral route. This same healthy volunteer had lab work drawn right before receiving an IV dose of synthetic Fibrinopeptide A. The IV dose was expected to have a more profound therapeutic effect, since treatment was simulating a normal intravascular biologic process. […] (Table 3). [table]

[4] = test system: Ponto Toro Virus; format: in vivo, mice; conditions: Ponto Toro infection, one dose; placebo group 25% survived
[5] = test system: mouse antibody IgE; conditions: cited from earlier work

Sequence: ADSGEGDFLAEGGGV (listed as Homo sapiens) [Fibrinopeptide A]
- IFN-γ ([1]; 10 Hours after IV 50 mg): <5
- IL-4 ([1]; 10 Hours after IV 50 mg): <5
- IL-5 ([1]; 10 Hours after IV 50 mg): <5
- IL-6 ([1]; 10 Hours after IV 50 mg): 11
- IL-8 ([1]; 10 Hours after IV 50 mg): <5
- IL-12 ([1]; 10 Hours after IV 50 mg): <5
- IL-2 ([1]; 10 Hours after IV 50 mg): <5
- IL-10 ([1]; 10 Hours after IV 50 mg): 87
- TNF-α ([1]; 10 Hours after IV 50 mg): <5
- IL-1β ([1]; 10 Hours after IV 50 mg): 52
- IL-2R ([1]; 10 Hours after IV 50 mg): 475
- IFN-γ ([1]; 14 hours after IV 50 mg): <5
- IL-4 ([1]; 14 hours after IV 50 mg): <5
- IL-5 ([1]; 14 hours after IV 50 mg): <5
- IL-6 ([1]; 14 hours after IV 50 mg): 10
- IL-8 ([1]; 14 hours after IV 50 mg): <5
- IL-12 ([1]; 14 hours after IV 50 mg): <5
- IL-2 ([1]; 14 hours after IV 50 mg): <5
- IL-10 ([1]; 14 hours after IV 50 mg): 87
- TNF-α ([1]; 14 hours after IV 50 mg): <5
- IL-1β ([1]; 14 hours after IV 50 mg): 54
- IL-2R ([1]; 14 hours after IV 50 mg): 492
- IFN-γ ([1]; 60 hours after IV 50 mg): <5
- IL-4 ([1]; 60 hours after IV 50 mg): <5
- IL-5 ([1]; 60 hours after IV 50 mg): <5
- IL-6 ([1]; 60 hours after IV 50 mg): 7
- IL-8 ([1]; 60 hours after IV 50 mg): <5
- IL-12 ([1]; 60 hours after IV 50 mg): <5
- IL-2 ([1]; 60 hours after IV 50 mg): <5
- IL-10 ([1]; 60 hours after IV 50 mg): 74
- TNF-α ([1]; 60 hours after IV 50 mg): <5
- IL-1β ([1]; 60 hours after IV 50 mg): 54
- IL-2R ([1]; 60 hours after IV 50 mg): 425
- IFN-γ ([1]; 30 days after IV 50 mg): <5
- IL-4 ([1]; 30 days after IV 50 mg): <5
- IL-5 ([1]; 30 days after IV 50 mg): <5
- IL-6 ([1]; 30 days after IV 50 mg): <5
- IL-8 ([1]; 30 days after IV 50 mg): <5
- IL-13 ([1]; 30 days after IV 50 mg): <5
- IL-12 ([1]; 30 days after IV 50 mg): <5
- IL-2 ([1]; 30 days after IV 50 mg): <5
- IL-10 ([1]; 30 days after IV 50 mg): 22
- TNF-α ([1]; 30 days after IV 50 mg): <5
- IL-1β ([1]; 30 days after IV 50 mg): <5
- IL-2R ([1]; 30 days after IV 50 mg): 546
- response of the cytokine panel to IV administration ([1]; IV dose 10 times stronger than the subcutaneous dosage given previously): no appreciable response
- IFN-γ ([1]; Pre and 1 month after IV Use): <5
- IL-4 ([1]; Pre and 1 month after IV Use): <5
- IL-5 ([1]; Pre and 1 month after IV Use): <5
- IL-6 ([1]; Pre and 1 month after IV Use): <5
- IL-8 ([1]; Pre and 1 month after IV Use): <5
- IL-13 ([1]; Pre and 1 month after IV Use): <5
- IL-12 ([1]; Pre and 1 month after IV Use): <5
- IL-2 ([1]; Pre and 1 month after IV Use): <5
- IL-10 ([1]; Pre and 1 month after IV Use): 22
- TNF-α ([1]; Pre and 1 month after IV Use): <5
- IL-1β ([1]; Pre and 1 month after IV Use): <5
- IL-2R ([1]; Pre and 1 month after IV Use): 546
- difference in disease severity versus vehicle-treated mice [2]: did not reach statistical significance
- IFN-γ ([3]; nl: 0-5): <5
- IL-4 ([3]; nl: 0-5): <5
- IL-5 ([3]; nl: 0-5): <5
- IL-6 ([3]; nl: 0-5): 13
- IL-8 ([3]; nl: 0-5): <5
- IL-12 ([3]; nl: 0-6): <5
- IL-2 ([3]; nl: 0-12): <5
- IL-10 ([3]; nl: 0-18): 96
- TNF-α ([3]; nl: 0-22): <5
- IL-1β ([3]; nl: 0-36): 52
- IL-2R ([3]; nl: 0-1033): 550
- mice that lived (overall survivability) [4]: 60%
- deglycosylation of IgE [5]: deglycosylates mouse antibody IgE
